Source: publication PMC11997881, “Comprehensive Characterization of Bruton’s Tyrosine Kinase Inhibitor Specificity, Potency, and Biological Effects: Insights into Covalent and Noncovalent Mechanistic Signatures” (ACS Pharmacology & Translational Science, 2025)

Legend:
[1] = target: T1, ITK (Homo sapiens, UniProt Q08881); test: scanMAX binding POC, ITK; conditions: 1 μM
T1 sequence (Q08881 1-620): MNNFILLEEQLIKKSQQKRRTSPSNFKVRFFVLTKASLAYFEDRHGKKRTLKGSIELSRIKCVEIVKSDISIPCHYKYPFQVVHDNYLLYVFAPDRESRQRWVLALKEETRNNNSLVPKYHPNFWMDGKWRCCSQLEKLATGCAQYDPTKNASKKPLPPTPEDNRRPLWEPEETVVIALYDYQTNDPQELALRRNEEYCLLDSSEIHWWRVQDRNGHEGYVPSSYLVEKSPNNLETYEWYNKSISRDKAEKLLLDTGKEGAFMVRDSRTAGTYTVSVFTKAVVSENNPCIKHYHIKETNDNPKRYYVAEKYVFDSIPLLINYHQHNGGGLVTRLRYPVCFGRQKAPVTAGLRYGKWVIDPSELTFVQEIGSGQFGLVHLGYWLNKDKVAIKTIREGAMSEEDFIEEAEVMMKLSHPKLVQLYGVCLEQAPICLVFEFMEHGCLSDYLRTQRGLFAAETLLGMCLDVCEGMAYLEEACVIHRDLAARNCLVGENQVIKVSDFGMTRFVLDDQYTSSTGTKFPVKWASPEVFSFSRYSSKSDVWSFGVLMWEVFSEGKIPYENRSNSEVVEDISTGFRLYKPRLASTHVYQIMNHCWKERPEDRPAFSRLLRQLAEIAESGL
From the text: (§1) Comprehensive Characterization of Bruton’s Tyrosine Kinase Inhibitor Specificity, Potency, and
(§2) Biological Effects: Insights into Covalent and Non-Covalent Mechanistic Signatures
(§3) Antonia C. Darragh1, Andrew M. Hanna1, Justin H. Lipner2, Alastair J. King2, Nicole B. Servant1, Mirza Jahic1*
(§4) *To whom correspondence should be addressed: Mirza Jahic, e-mail address: Mirza.Jahic@discovery.eurofinsus.com
(§5) Supporting Table S1. Comparison of BTK inhibitor specificity to TEC family members. TEC family members are
(§6) Burton’s tyrosine kinase (BTK), tyrosine kinase expressed in hepatocellular carcinoma (TEC), bone marrow-
(§7) expressed kinase (BMX/ETK), and T cell-expressed kinase (TXK/RLK), and interleukin-2-inducible T cell kinase
(§8) A zero POC signifies that the compound

[2] = target: ERBB3 (Homo sapiens, UniProt P21860); test: scanMAX binding POC, ERBB3; conditions: 1 μM
[3] = target: BTK C481S; conditions: average of literature values; read-out: average published Kd for BTK C481S; cited from earlier work
[4] = tested on: BTK; conditions: cited from earlier work
[5] = target: T2, TEC (Homo sapiens, UniProt P42680); test: scanMAX binding POC, TEC; conditions: 1 μM
T2 sequence (P42680 1-631): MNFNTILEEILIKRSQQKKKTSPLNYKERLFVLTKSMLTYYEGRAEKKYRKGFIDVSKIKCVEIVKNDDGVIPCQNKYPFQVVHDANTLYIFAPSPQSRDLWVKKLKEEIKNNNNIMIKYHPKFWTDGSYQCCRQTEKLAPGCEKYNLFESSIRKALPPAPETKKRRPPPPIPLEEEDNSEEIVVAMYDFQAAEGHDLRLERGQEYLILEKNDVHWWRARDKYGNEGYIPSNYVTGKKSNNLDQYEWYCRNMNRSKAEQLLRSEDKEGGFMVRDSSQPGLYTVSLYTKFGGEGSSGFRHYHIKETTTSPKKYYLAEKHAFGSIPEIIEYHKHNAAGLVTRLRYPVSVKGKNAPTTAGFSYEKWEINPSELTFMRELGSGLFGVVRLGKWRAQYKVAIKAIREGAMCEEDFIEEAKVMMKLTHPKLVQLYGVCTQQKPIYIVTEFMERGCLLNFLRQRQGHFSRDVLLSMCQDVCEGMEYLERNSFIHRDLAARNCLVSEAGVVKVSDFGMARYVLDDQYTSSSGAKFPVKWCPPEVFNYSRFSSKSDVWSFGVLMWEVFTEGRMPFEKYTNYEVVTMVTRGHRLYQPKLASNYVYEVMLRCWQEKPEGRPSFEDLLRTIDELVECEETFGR
From the text: as §1, §2, §3, §4, §5, §6, §7, §8

[6] = target: EGFR (Homo sapiens, UniProt P00533); test: scanMAX binding POC, EGFR; conditions: 1 μM
[7] = target: ERBB2 (Homo sapiens, UniProt P04626); test: scanMAX binding POC, ERBB2; conditions: 1 μM
[8] = target: BLK (Homo sapiens, UniProt P51451); test: scanMAX binding POC, BLK; conditions: 1 μM
[9] = target: JNK2 (MAPK9) (Homo sapiens, UniProt P45984); test: scanMAX binding POC, JNK2; conditions: 1 μM
[10] = target: T3, TXK (Homo sapiens, UniProt P42681); test: scanMAX binding POC, TXK; conditions: 1 μM
T3 sequence (P42681 1-527): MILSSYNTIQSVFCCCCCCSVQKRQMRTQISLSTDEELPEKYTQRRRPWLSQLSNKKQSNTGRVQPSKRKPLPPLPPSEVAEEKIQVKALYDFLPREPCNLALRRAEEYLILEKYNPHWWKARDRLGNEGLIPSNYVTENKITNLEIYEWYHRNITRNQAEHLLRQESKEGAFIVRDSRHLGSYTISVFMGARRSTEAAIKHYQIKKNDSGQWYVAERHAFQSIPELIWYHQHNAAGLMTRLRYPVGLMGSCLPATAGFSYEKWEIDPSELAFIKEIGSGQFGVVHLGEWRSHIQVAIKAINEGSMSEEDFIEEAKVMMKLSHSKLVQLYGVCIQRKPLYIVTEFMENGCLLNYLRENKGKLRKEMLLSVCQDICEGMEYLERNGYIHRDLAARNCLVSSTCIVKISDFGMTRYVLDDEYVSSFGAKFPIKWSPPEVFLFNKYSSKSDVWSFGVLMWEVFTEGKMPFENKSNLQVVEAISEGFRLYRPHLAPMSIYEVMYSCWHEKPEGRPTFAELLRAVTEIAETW
From the text: as §1, §2, §3, §4, §5, §6, §7, §8

[11] = target: JNK1 (MAPK8) (Homo sapiens, UniProt P45983); test: scanMAX binding POC, JNK1; conditions: 1 μM
[12] = target: JNK3 (MAPK10) (Homo sapiens, UniProt P53779); test: scanMAX binding POC, JNK3; conditions: 1 μM
[13] = target: T4, JAK3 (JH1 catalytic domain) (Homo sapiens, UniProt P52333); test: scanMAX binding POC, JAK3; conditions: 1 μM
T4 construct: The JAK3 POC is for its JH1 catalytic domain

[14] = target: T5, MKK7 (Homo sapiens, UniProt O14733); test: scanMAX binding POC, MKK7; conditions: 1 μM
T5 sequence (O14733 1-419): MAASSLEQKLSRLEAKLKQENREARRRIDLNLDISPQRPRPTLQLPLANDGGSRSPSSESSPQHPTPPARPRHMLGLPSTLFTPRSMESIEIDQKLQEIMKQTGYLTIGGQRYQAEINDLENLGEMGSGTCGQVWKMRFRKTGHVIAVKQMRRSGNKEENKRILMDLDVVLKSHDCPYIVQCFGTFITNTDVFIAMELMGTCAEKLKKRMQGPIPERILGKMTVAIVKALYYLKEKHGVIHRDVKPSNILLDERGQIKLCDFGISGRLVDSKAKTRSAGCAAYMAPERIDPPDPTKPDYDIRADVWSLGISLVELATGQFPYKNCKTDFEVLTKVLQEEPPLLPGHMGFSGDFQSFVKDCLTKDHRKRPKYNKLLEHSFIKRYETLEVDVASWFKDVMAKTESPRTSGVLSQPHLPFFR

[15] = target: T6, BTK (Homo sapiens, UniProt Q06187); test: scanMAX binding POC, BTK; conditions: 1 μM; zero POC = competition comparable to positive control
T6 construct: host or cells: transiently transfected HEK293 cells
From the text: as §1, §2, §3, §4, §5, §6, §7, §8

[16] = tested on: patients with CLL; parameters: method as in NCT02477696; conditions: phase III, P = 0.02, ref NCT02477696; cited from earlier work
[17] = target: ERBB4 (Homo sapiens, UniProt Q15303); test: scanMAX binding POC, ERBB4; conditions: 1 μM
[18] = tested on: BTK C481S; conditions: read-out: average published IC50 for BTK C481S; cited from earlier work
[19] = tested on: R/R PCNSL lymphoma patients; conditions: three-year follow-up; cited from earlier work
[20] = tested on: relapsed/refractory (R/R) CLL and small lymphocytic lymphoma (SLL); parameters: method as in NCT03734016; conditions: cited from earlier work

Sequence of BLK (P51451 whole entry): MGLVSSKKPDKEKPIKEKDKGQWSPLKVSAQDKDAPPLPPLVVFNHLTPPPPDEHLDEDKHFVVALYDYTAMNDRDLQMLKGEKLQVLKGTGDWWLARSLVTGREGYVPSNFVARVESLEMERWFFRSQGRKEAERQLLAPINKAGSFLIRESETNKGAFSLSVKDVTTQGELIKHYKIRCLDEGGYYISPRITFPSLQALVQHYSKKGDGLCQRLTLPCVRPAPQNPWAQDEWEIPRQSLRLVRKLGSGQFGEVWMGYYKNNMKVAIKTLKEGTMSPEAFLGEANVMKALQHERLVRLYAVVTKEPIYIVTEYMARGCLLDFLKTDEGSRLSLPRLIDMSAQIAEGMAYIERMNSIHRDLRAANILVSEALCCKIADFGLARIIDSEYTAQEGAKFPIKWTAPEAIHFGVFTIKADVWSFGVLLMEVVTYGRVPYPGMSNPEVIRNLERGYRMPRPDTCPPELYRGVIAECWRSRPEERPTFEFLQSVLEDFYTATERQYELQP
Sequence of ERBB3 (P21860 20-1342): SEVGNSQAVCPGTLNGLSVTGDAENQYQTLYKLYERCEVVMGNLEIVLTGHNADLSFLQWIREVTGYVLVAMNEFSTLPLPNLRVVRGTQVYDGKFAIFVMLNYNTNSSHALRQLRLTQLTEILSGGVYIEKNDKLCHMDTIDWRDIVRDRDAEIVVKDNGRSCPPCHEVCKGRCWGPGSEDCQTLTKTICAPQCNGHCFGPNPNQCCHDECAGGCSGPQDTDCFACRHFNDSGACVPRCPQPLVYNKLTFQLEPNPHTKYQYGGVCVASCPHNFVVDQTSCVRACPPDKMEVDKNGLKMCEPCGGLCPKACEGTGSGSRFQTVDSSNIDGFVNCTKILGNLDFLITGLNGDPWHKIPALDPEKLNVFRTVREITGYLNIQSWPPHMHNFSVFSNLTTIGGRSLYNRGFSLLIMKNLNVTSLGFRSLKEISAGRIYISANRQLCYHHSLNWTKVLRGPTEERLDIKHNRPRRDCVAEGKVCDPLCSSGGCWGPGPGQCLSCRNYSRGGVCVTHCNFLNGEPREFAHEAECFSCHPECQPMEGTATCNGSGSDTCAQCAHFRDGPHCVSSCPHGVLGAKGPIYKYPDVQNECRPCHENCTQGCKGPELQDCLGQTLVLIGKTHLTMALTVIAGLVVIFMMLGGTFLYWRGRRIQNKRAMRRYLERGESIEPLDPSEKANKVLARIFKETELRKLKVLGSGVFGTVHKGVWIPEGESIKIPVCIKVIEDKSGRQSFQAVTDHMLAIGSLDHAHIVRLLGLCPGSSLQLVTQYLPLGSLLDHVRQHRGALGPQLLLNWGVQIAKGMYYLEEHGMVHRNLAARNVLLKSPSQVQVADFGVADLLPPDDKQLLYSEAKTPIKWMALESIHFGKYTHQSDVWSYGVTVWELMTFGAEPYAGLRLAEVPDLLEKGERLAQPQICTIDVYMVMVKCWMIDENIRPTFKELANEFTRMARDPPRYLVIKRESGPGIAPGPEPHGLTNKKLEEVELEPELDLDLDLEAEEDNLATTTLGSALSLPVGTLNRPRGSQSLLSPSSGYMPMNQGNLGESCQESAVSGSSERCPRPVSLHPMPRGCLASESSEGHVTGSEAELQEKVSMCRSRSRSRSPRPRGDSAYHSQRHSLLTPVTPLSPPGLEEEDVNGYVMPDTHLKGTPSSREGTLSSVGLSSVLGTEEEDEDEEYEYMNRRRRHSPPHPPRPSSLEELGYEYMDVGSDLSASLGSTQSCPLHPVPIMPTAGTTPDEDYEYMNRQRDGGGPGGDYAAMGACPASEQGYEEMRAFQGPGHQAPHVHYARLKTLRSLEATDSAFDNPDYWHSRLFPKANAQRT
Sequence of ERBB2 (P04626 23-1255): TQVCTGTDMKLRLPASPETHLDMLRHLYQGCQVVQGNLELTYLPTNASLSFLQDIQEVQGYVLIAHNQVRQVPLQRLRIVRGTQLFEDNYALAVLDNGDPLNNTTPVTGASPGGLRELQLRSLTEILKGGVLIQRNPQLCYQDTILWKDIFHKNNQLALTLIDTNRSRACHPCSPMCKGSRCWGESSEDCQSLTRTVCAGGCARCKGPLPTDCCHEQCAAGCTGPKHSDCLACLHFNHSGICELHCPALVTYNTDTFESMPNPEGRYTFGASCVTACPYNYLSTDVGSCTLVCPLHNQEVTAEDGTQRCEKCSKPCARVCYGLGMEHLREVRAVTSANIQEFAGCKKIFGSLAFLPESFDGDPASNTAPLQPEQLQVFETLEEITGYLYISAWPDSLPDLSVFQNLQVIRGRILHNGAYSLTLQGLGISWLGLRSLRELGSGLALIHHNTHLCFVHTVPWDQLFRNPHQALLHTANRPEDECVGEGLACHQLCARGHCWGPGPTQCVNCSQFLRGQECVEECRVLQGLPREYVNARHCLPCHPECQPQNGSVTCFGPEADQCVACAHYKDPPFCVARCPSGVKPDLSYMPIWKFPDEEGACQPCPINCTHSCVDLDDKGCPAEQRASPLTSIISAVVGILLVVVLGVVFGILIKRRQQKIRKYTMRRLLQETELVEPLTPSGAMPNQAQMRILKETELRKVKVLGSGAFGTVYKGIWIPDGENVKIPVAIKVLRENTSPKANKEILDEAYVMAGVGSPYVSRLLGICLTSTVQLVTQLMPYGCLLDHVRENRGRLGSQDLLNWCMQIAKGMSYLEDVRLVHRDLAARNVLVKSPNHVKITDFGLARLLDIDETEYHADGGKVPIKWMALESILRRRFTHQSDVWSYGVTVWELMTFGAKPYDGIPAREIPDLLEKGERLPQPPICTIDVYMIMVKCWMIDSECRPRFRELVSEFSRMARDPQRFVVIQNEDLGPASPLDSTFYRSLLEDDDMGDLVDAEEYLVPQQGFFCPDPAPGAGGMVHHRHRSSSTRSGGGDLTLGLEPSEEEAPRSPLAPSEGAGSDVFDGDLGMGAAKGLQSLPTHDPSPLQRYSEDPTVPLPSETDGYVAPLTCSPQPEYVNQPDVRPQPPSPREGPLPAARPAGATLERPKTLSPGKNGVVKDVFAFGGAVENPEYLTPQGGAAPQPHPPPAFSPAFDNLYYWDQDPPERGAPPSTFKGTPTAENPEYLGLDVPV
Sequence of JNK2 (MAPK9) (P45984 whole entry): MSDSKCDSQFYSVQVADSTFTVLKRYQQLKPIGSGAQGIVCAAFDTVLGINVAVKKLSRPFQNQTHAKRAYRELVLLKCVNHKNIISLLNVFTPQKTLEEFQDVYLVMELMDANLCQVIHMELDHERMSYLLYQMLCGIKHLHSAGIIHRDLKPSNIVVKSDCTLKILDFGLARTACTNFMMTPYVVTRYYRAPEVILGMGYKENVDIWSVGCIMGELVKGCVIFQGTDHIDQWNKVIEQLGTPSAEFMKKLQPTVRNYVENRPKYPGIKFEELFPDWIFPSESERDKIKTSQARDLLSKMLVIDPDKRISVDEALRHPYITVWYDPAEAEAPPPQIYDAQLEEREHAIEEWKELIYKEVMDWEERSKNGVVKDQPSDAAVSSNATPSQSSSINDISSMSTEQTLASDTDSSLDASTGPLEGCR
Sequence of JNK1 (MAPK8) (P45983 whole entry): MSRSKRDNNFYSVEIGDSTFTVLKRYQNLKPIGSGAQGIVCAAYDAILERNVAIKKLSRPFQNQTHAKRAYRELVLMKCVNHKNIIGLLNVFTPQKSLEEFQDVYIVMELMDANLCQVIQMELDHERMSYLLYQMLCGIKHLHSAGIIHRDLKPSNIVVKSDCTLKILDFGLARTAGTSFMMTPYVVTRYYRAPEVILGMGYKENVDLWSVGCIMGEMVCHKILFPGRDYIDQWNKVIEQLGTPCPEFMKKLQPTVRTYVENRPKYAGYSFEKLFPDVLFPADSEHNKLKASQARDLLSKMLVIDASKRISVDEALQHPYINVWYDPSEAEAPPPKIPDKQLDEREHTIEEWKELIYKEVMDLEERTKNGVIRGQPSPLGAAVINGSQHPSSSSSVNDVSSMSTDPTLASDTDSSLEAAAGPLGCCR
Sequence of EGFR (P00533 25-1210): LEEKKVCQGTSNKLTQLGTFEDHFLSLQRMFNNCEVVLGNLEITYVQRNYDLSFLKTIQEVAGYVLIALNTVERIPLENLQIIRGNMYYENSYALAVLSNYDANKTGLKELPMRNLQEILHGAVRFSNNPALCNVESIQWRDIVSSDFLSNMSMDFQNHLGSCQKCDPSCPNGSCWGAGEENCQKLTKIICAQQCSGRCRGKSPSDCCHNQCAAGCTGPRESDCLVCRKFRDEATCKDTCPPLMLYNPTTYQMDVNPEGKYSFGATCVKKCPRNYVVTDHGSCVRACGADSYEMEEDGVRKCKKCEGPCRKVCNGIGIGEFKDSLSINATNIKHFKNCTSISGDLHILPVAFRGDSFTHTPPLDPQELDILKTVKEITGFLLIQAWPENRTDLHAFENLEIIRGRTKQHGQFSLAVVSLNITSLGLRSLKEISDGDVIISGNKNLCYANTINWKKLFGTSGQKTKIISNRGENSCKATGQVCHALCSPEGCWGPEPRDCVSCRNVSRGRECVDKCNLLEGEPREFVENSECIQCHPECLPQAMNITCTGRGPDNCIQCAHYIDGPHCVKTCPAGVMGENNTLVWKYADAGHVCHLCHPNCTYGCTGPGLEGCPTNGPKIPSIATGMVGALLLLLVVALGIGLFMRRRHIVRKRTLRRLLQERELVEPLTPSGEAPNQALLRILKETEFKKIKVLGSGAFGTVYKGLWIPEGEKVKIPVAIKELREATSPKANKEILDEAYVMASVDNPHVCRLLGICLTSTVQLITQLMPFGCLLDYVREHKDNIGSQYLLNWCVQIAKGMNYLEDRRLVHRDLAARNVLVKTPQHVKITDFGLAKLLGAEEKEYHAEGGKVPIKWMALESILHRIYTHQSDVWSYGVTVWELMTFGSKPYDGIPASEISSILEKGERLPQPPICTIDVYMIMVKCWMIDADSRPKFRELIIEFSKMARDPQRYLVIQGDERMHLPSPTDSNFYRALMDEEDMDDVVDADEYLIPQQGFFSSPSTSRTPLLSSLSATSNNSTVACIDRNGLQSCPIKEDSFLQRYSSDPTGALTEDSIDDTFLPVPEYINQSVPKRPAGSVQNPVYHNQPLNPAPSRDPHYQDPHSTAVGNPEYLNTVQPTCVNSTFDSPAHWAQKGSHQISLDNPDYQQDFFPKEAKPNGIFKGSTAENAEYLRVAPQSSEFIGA

Row | Compound | ITK binding POC [1] | ERBB3 binding POC [2] | IC50 [4] [nM] | TEC binding POC [5] | EGFR binding POC [6] | ERBB2 binding POC [7] | BLK binding POC [8] | JNK2 (MAPK9) POC [9] | TXK binding POC [10] | JNK1 (MAPK8) POC [11] | JNK3 (MAPK10) POC [12] | JAK3 binding POC [13] | MKK7 binding POC [14] | BTK binding POC [15] | ERBB4 binding POC [17] | further results
1 | CC#CC(=O)N1CCC[C@H]1c1nc(-c2ccc(C(=O)Nc3ccccn3)cc2)c2c(N)nccn12 [Acalabrutinib] | 100% of control | 64% of control | […] | 14% of control | 61% of control | 4.7% of control | 57% of control | 58% of control | 47% of control | 93% of control | 97% of control | 80% of control | 75% of control | 0.2% of control | 6.9% of control | Kd [3]: 358 nM; adverse cardiovascular events [16]: 9.4%
2 | C=CC(=O)N1CCC[C@@H](n2nc(-c3ccc(Oc4ccccc4)cc3)c3c(N)ncnc32)C1 [Ibrutinib] |  | 0.15% of control | […] | 5.9% of control | 0% of control | 0.1% of control | 0.25% of control | 78% of control | 0.5% of control | 78% of control |  |  | 0.15% of control |  | 0% of control | IC50 [18]: […]
3 | CC#CC(=O)N1CC[C@@H](n2c(=O)n(-c3ccc(Oc4ccccc4)cc3)c3c(N)ncnc32)C1 [Tirabrutinib] |  | 12% of control | […] | 9.4% of control | 74% of control | 26% of control | 14% of control | 92% of control | 14% of control | 99% of control | […] |  | 87% of control | 0.35% of control | 85% of control | overall response rate [19]: 63.6%
4 | C=CC(=O)N1CCC([C@@H]2CCNc3c(C(N)=O)c(-c4ccc(Oc5ccccc5)cc4)nn32)CC1 [Zanubrutinib] | 74% of control | 23% of control | […] | 8.7% of control | 0% of control | 7.3% of control | 0.3% of control | 95% of control | 2.2% of control | 99% of control | 93% of control | 20% of control | 55% of control |  | 0.75% of control | overall response rate (ORR, partial and complete responses) ([20]; after 15 months, P < 0.001, ref NCT03734016): 78.3%; cardiovascular adverse events ([20]; two-sided P = 0.001, ref NCT03734016): 2.5%
